# Source: patent US10030047B2 (Hoffmann-La Roche Inc., priority 2015, dated 2018)
# System: A. baumannii strain ATCC17978
# Test: 50% growth inhibitory concentration (IC50) determination, Iso-Sensitest broth
# Type: cell-based
# Conditions: Acinetobacter baumannii; A. baumannii ATCC17978; Iso-Sensitest medium; OD 600 nm over 16 h; read-out: IC50 ATCC17978
# Experimental: The in vitro antimicrobial activity of the compounds was alternatively determined according to the following procedure:
# The assay used a 10-points Iso-Sensitest broth medium to measure quantitatively the in vitro activity of the compounds against A. baumannii ATCC 17978.
# Stock compounds in DMSO were serially twofold diluted (e.g. range from 50 to 0.097 μM final concentration) in 384 wells microtiter plates and inoculated with 49 μl the bacterial suspension in Iso-Sensitest medium to have a final cell concentration of ˜5×10^(5) CFU/ml in a final volume/well of 50 ul/well. Microtiter plates were incubated at 35±2° C.
# Bacterial cell growth was determined with the measurement of optical density at λ=600 nm each 20 minutes over a time course of 16 h.
# Growth inhibition was calculated during the logarithmic growth of the bacterial cells with determination of the concentration inhibiting 50% (IC50) and 90% (IC90) of the growth.
# Tables 3, 4 and 5 provide the 50% growth inhibitory concentrations (IC50) in micromoles per liter of the compounds of present invention obtained against the A. baumannii strain ATCC17978.
row,Structure (SMILES),IC50 [nM]
1,"CN1C(=O)[C@H](CCCCN)NC(=O)[C@H](CCCN)NCc2ccccc2Sc2c(Cl)cc(-c3ccncc3)cc2CNC(=O)[C@@H]1Cc1c[nH]c2ccccc12 [Example 143, (12S,15S,18S)-15-(4-Amino-butyl)-18-(3-amino-propyl)-4-chloro-12-(1H-indol-3-ylmethyl)-13-methyl-6-pyridin-4-yl-2-thia-10,13,16,19-tetraaza-tricyclo[19.4.0.0*3,8*]pentacosa-1(25),3,5,7,21,23-hexaene-11,14,17-trione]",< 400
2,"CN1C(=O)[C@H](CCCCN)NC(=O)[C@H](CCCN)NCc2ccccc2Sc2c(Cl)cc(Br)cc2CNC(=O)[C@@H]1Cc1c[nH]c2ccccc12 [Example 151, (12S,15S,18S)-15-(4-Amino-butyl)-18-(3-amino-propyl)-6-bromo-4-chloro-12-(1H-indol-3-ylmethyl)-13-methyl-2-thia-10,13,16,19-tetraaza-tricyclo[19.4.0.0*3,8*]pentacosa-1(25),3,5,7,21,23-hexaene-11,14,17-trione]",200
3,CN1C(=O)[C@H](CCCCN)NC(=O)[C@H](CCCN)NCc2ccccc2Sc2c(Cl)ncc(Cl)c2CNC(=O)[C@@H]1Cc1c[nH]c2ccccc12 [Example 152],< 390
4,CN1C(=O)[C@H](CCCCN)NC(=O)[C@H](CCCN)NCc2ccccc2Sc2cnc(Cl)cc2CNC(=O)[C@@H]1Cc1c[nH]c2ccccc12 [Example 153],< 390
5,"CN1C(=O)[C@H](CCCCN)NC(=O)[C@H](CCC(N)=O)NCc2ccccc2Sc2c(cc(-c3ccccc3)cc2C(F)(F)F)CNC(=O)[C@@H]1Cc1c[nH]c2ccccc12 [Example 155, 3-[(11S,14S,17S)-14-(4-Amino-butyl)-17-(1H-indol-3-ylmethyl)-16-methyl-12,15,18-trioxo-23-phenyl-25-trifluoromethyl-2-thia-10,13,16,19-tetraaza-tricyclo[19.4.0.0*3,8*]pentacosa-1(25),3,5,7,21,23-hexaen-11-yl]-propionamide]",2700
6,CN1C(=O)[C@H](CCCCN)NC(=O)[C@H](CCCN)NCc2ccccc2Sc2c(Cl)cncc2CNC(=O)[C@@H]1Cc1c[nH]c2ccccc12 [Example 158],< 390
7,"CN1C(=O)[C@H](CCCCN)NC(=O)[C@H](CCCN)NCc2cccnc2Sc2cnc(Cl)cc2CNC(=O)[C@@H]1Cc1c[nH]c2ccccc12 [Example 159, (7S,10S,13S)— 13-((1H-Indol-3-yl)methyl)-10-(4-aminobutyl)-7-(3-aminopropyl)-18-chloro-12-methyl-6,7,9,10,12,13,15,16-octahydrodipyrido[2,3-b:4′,3′-p][1,5,8,11,14]thiatetraazacycloheptadecine-8,11,14(5H)-trione]",< 390
8,"CN1C(=O)[C@H](CCC(N)=O)NC(=O)[C@H](CCCN)NCc2ccccc2Sc2c(cc(-c3ccccc3)cc2C(F)(F)F)CNC(=O)[C@@H]1Cc1c[nH]c2ccccc12 [Example 161, 3-[(11S,14S,17S)-11-(3-Amino-propyl)-17-(1H-indol-3-ylmethyl)-16-methyl-12,15,18-trioxo-23-phenyl-25-trifluoromethyl-2-thia-10,13,16,19-tetraaza-tricyclo[19.4.0.0*3,8*]pentacosa-1(25),3,5,7,21,23-hexaen-14-yl]-propionamide]",6800
9,"CN1C(=O)[C@H](CCCCN)NC(=O)[C@H](CCCN)NCc2ccccc2Sc2c(ccc(Br)c2Cl)CNC(=O)[C@@H]1Cc1c[nH]c2ccccc12 [Example 168, (12S,15S,18S)-15-(4-Amino-butyl)-18-(3-amino-propyl)-5-bromo-4-chloro-12-(1H-indol-3-ylmethyl)-13-methyl-2-thia-10,13,16,19-tetraaza-tricyclo[19.4.0.0*3,8*]pentacosa-1(25),3,5,7,21,23-hexaene-11,14,17-trione]",< 400
10,"CN1C(=O)[C@H](CCCCN)NC(=O)[C@H](CCCN)NCc2ccccc2Sc2c(ccc(-c3ccccc3)c2Cl)CNC(=O)[C@@H]1Cc1c[nH]c2ccccc12 [Example 176, (12S,15S,18S)-15-(4-Amino-butyl)-18-(3-amino-propyl)-4-chloro-12-(1H-indol-3-ylmethyl)-13-methyl-5-phenyl-2-thia-10,13,16,19-tetraaza-tricyclo[19.4.0.0*3,8*]pentacosa-1(25),3,5,7,21,23-hexaene-11,14,17-trione]",5100
11,CN1C(=O)[C@H](CCCCN)NC(=O)[C@H](CCCN)NCc2ccccc2Sc2c(-c3cccnc3)ncc(Cl)c2CNC(=O)[C@@H]1Cc1c[nH]c2ccccc12 [Example 194],3300
12,CN1C(=O)[C@H](CCCCN)NC(=O)[C@H](CCCN)NCc2ccccc2Sc2c(-c3ccncc3)ncc(Cl)c2CNC(=O)[C@@H]1Cc1c[nH]c2ccccc12 [Example 195],3000
13,COc1cc(-c2ncc(Cl)c3c2Sc2ccccc2CN[C@@H](CCCN)C(=O)N[C@@H](CCCCN)C(=O)N(C)[C@@H](Cc2c[nH]c4ccccc24)C(=O)NC3)ccn1 [Example 196],100
14,"CN1C(=O)[C@H](CCCCN)NC(=O)[C@H](CCCN)NCc2cccnc2Sc2ccc(Br)nc2CNC(=O)[C@@H]1Cc1c[nH]c2ccccc12 [Example 197, (7S,10S,13S)-13-((1H-Indol-3-yl)methyl)-10-(4-aminobutyl)-7-(3-aminopropyl)-18-bromo-12-methyl-6,7,9,10,12,13,15,16-octahydrodipyrido[2,3-b:2′,3′-p][1,5,8,11,14]thiatetraazacycloheptadecine-8,11,14(5H)-trione]",200
15,CN1C(=O)[C@H](CCCCN)NC(=O)[C@H](CCCN)NCc2ccccc2Sc2c(-c3ccnc(C(F)(F)F)c3)ncc(Cl)c2CNC(=O)[C@@H]1Cc1c[nH]c2ccccc12 [Example 198],300
16,CN1C(=O)[C@H](CCCCN)NC(=O)[C@H](CCCN)NCc2ccccc2Sc2c(N3CCOCC3)ncc(Cl)c2CNC(=O)[C@@H]1Cc1c[nH]c2ccccc12 [Example 201],400
17,"CN1C(=O)[C@H](CCCCN)NC(=O)[C@H](CCCN)NCc2cc(Br)ccc2Sc2c(Cl)cccc2CNC(=O)[C@@H]1Cc1c[nH]c2ccccc12 [Example 206, (12S,15S,18S)-15-(4-Amino-butyl)-18-(3-amino-propyl)-23-bromo-4-chloro-12-(1H-indol-3-ylmethyl)-13-methyl-2-thia-10,13,16,19-tetraaza-tricyclo[19.4.0.0*3,8*]pentacosa-1(25),3,5,7,21,23-hexaene-11,14,17-trione]",1400
18,"CN1C(=O)[C@H](CCCCN)NC(=O)[C@H](CCCN)NCc2cc(-c3ccccc3)ccc2Sc2c(Cl)cccc2CNC(=O)[C@@H]1Cc1c[nH]c2ccccc12 [Example 207, (12S,15S,18S)-15-(4-Amino-butyl)-18-(3-amino-propyl)-4-chloro-12-(1H-indol-3-ylmethyl)-13-methyl-23-phenyl-2-thia-10,13,16,19-tetraaza-tricyclo[19.4.0.0*3,8*]pentacosa-1(25),3,5,7,21,23-hexaene-11,14,17-trione]",9000
19,"CN1C(=O)[C@H](CCCCN)NC(=O)[C@H](CCCN)NCc2cc(-c3cccnc3)ccc2Sc2c(Cl)cccc2CNC(=O)[C@@H]1Cc1c[nH]c2ccccc12 [Example 208, (12S,15S,18S)-15-(4-Amino-butyl)-18-(3-amino-propyl)-4-chloro-12-(1H-indol-3-ylmethyl)-13-methyl-23-pyridin-3-yl-2-thia-10,13,16,19-tetraaza-tricyclo[19.4.0.0*3,8*]pentacosa-1(25),3,5,7,21,23-hexaene-11,14,17-trione]",12500
